Assays:
[1] = test system: black bean aphids (Aphis fabae); experiment: Method B: root-systemic test, aqueous solution of the formulated preparation pipetted into the bottle of field bean (Vicia faba) populated with aphids; assay type: in vivo; conditions: 10 ppm (based on content of active compound), 4 ml solution pipetted into bottle, after 3 and 6 days of storage, read-out: mortality among the aphids, by root-systemic action
Protocol: Germinated field bean seeds (Vicia faba) with seed roots were transferred into brown glass bottles filled with tap water. Four milliliters of an aqueous solution of the formulated preparation to be examined were pipetted into the brown glass bottle.
The field bean was then heavily populated with about 100 black bean aphids (Aphis fabae). Plants and aphids were then stored in a climatized chamber (16 hours of light/day, 25° C., 40-60% relative atmospheric humidity). After 3 and 6 days of storage, the root-systemic effect of the preparation on the aphids was determined.

[2] = test system: black bean aphids (Aphis fabae); experiment: whole plant or invertebrate; conditions: in Vicia faba, read-out: mortality among the aphids

C=CCSC(=NC(=O)c1cnccc1C(F)(F)F)NCc1ccccc1 [Compound A-724, 1-benzyl-S-(2-propenyl)-3-(4-trifluoromethyl-3-pyridylcarbonyl)isothiourea]
mortality at 10 ppm [1]: ≥ 80% | mortality at 100 ppm [2]: ≥ 50%
